Activity calls are given as the source filed them. The rule behind the calls is not given here.
How the values were obtained:
MGC-803 [1] = assay: Induction of apoptosis in human MGC803 cells assessed as formation of nicks in DNA at 5 uM after 48 hrs by TUNNEL assay; type: functional, cell-based
Bcap37 [2] = assay: Selectivity index, ratio of IC50 for mouse NIH/3T3 cells to IC50 for human Bcap37 cells; type: functional
Bcap37 [3] = assay: Cytotoxicity against human Bcap37 cells after 72 hrs by MTT assay; type: functional, cell-based
MGC-803 [4] = assay: Selectivity index, ratio of IC50 for mouse NIH/3T3 cells to IC50 for human MGC803 cells; type: functional
MGC-803 [5] = assay: Induction of apoptosis in human MGC803 cells assessed as membrane blebbing at 5 uM after 12 to 48 hrs using acridine orange/ethidium bromide staining by fluorescence microscopic analysis; type: functional, cell-based
A-375 [6] = assay: Selectivity index, ratio of IC50 for mouse NIH/3T3 cells to IC50 for human A375 cells; type: functional
MGC-803 [7] = assay: Induction of apoptosis in human MGC803 cells assessed as chromatin condensation at 5 uM after 12 to 48 hrs using Hoechst 33258 staining by fluorescence microscopic analysis; type: functional, cell-based
MGC-803 [8] = assay: Cytotoxicity against human MGC803 cells after 72 hrs by MTT assay; type: functional, cell-based
MGC-803 [9] = assay: Induction of apoptosis in human MGC803 cells assessed as cell budding at 5 uM after 12 to 48 hrs using acridine orange/ethidium bromide staining by fluorescence microscopic analysis; type: functional, cell-based
MCF7 [10] = assay: Cytotoxicity against human MCF7 cells after 72 hrs by MTT assay; type: functional, cell-based
PC-3 [11] = assay: Ratio of betulin IC50 to compound IC50 for human PC3 cells; type: functional
MGC-803 [12] = assay: Induction of apoptosis in human MGC803 cells assessed as apoptotic bodies at 5 uM after 12 to 48 hrs using Hoechst 33258 staining by fluorescence microscopic analysis; type: functional, cell-based
PC-3 [13] = assay: Selectivity index, ratio of IC50 for mouse NIH/3T3 cells to IC50 for human PC3 cells; type: functional
A-375 [14] = assay: Cytotoxicity against human A375 cells after 72 hrs by MTT assay; type: functional, cell-based
MGC-803 [15] = assay: Ratio of betulin IC50 to compound IC50 for human MGC803 cells; type: functional
Bcap37 [16] = assay: Ratio of betulin IC50 to compound IC50 for human Bcap37 cells; type: functional
MGC-803 [17] = assay: Induction of apoptosis in human MGC803 cells assessed as apoptosis ratio at 10 uM using annexin-V and propidium iodide staining by flow cytometry; type: functional, cell-based; conditions: TDE = time-dependent effect
MGC-803 [18] = assay: Induction of apoptosis in human MGC803 cells assessed as apoptosis ratio at 10 uM after 36 hrs using annexin-V and propidium iodide staining by flow cytometry; type: functional
PC-3 [19] = assay: Cytotoxicity against human PC3 cells after 72 hrs by MTT assay; type: functional, cell-based
MCF7 [20] = assay: Selectivity index, ratio of IC50 for mouse NIH/3T3 cells to IC50 for human MCF7 cells; type: functional
[21] = Cytotoxicity against mouse NIH/3T3 cells after 72 hrs by MTT assay; type: cell-based; conditions: nih3t3, 72 h
MCF7 [22] = assay: Ratio of betulin IC50 to compound IC50 for human MCF7 cells; type: functional
MGC-803 [23] = assay: Induction of apoptosis in human MGC803 cells assessed as apoptotic cells at 5 uM after 12 to 48 hrs using Hoechst 33258 staining by fluorescence microscopic analysis; type: functional, cell-based
A-375 [24] = assay: Ratio of betulin IC50 to compound IC50 for human A375 cells; type: functional
MGC-803 [25] = assay: Induction of apoptosis in human MGC803 cells assessed as pyknosis at 5 uM after 12 to 48 hrs using acridine orange/ethidium bromide staining by fluorescence microscopic analysis; type: functional, cell-based

Q: Which results are given for C=C(C)[C@@H]1CC[C@]2(COC(=O)CCC(=O)N3CCCCC3)CC[C@]3(C)[C@H](CC[C@@H]4[C@@]5(C)CC[C@H](O)C(C)(C)[C@@H]5CC[C@]43C)[C@@H]12?
A: Activity (MGC-803 [1]): Active; Ratio IC50 (Bcap37 [2]): 6.81; Activity (Bcap37 [3]): Dose-dependent effect; IC50 (Bcap37 [3]; Bcap37, 72 h): 5.2 µM; Ratio IC50 (MGC-803 [4]): 8.23; Activity (MGC-803 [5]): Active; Ratio IC50 (A-375 [6]): 4.72; Activity (MGC-803 [7]): Active; Activity (MGC-803 [8]): Dose-dependent effect; IC50 (MGC-803 [8]; MGC-803, 72 h): 4.3 µM; Activity (MGC-803 [9]): Active; Activity (MCF7 [10]): Dose-dependent effect; IC50 (MCF7 [10]; MCF7, 72 h): 5.2 µM; Ratio IC50 (PC-3 [11]): 4; Activity (MGC-803 [12]): Active; Ratio IC50 (PC-3 [13]): 7.86; Activity (A-375 [14]): Dose-dependent effect; IC50 (A-375 [14]; A-375, 72 h): 7.5 µM; Ratio IC50 (MGC-803 [15]): 4; Ratio IC50 (Bcap37 [16]): 4; Activity (MGC-803 [17]): tde; Activity (MGC-803 [18]): 31.11%; Activity (PC-3 [19]): Dose-dependent effect; IC50 (PC-3 [19]; PC-3, 72 h): 4.5 µM; Ratio IC50 (MCF7 [20]): 6.8; Activity [21]: Non-toxic; Ratio IC50 (MCF7 [22]): 4; Activity (MGC-803 [23]): Active; Ratio IC50 (A-375 [24]): 4; Activity (MGC-803 [25]): Active
